Results published in US5010067A, “Triglyceride-water emulsion pharmaceutical vehicles” (Sandoz Pharmaceuticals Corp., priority 1988, dated 1991).
“Also recorded” adds a separate entry of the source. Where a name gives a salt, the structure may show the parent alone.

Experiments:
[1] = tested on: rat tail; assay: Previous tests: injection of standard water-based mixtures in rats' tails; format: in vivo; conditions: for Test halted because of detergent-like effects around the injection site: standard water-based mixtures, 25 mg/kg and over; for Reduction of detergent-like effects by adjustment of pH, or inclusion of buffers or serum albumin: water-based mixtures
[2] = tested on: rat tail; assay: Detergent-like effects at tail vein injection site in rats, repeated daily injection for 14 days (compound in Emulsion A); format: in vivo; conditions: for Sloughing of tissue, incidence: mild sloughing in various areas (Compound A) / small dots at injection sites (Compound B); for Ischemia, incidence: by/at 14 days; for Average gain in body weight: over 14 days; for Edema, incidence: tail vein, by/at day 14; for Edema, day of onset: majority of rats; for Edema, day of onset in single late rat: one rat; for Overall damage to the rat tail / negative effects: compared with other compound or other vehicles
Experimental: A commercial 10% intravenous fat emulsion having 5% safflower oil and 5% soybean oil, USP, i.e. "Liposyn II 10%" described above, hereinafter referred to as Emulsion A, is employed.
The test compound is suspended or dissolved in Emulsion A at a concentration of 28 mg/ml. Probe sonification is employed to make a homogenous drug suspension or solution.
Rats are injected with 0.1 ml/100 g body weight. Control animals are injected with Emulsion A alone at the same volume as drug treated rats.
Each rat is placed in a plastic restraining tube, leaving its tail exposed A warm water soaked gauze pad is placed on the tail for approximately 10 seconds to help dilate the tail vein. A 25 gauge needle attached to a 1 cc tuberculine syringe is used to administer drug/control to the rat. To assure proper administration of doses, a negative pressure is achieved by drawing back slowly on the plunger of the syringe. A flashback of blood into the hub of the needle indicates proper placement of the needle, and drug/control is then administered slowly to the rat. After administration of dose, needle is removed and pressure with a clean gauze pad applied for approximately 10 seconds to keep fluid from flowing out of injection site. The rat is returned to its cage and procedure repeated for each animal.
Body weight and visual observations for detergent-like effects are recorded each day and at the end of the 14 day period; particularly for edema, ischemia and necrosis.
Tests were run to observe detergent-like effects on laboratory rats using as active ingredient either 3-[2-[octadecylaminocarbonyloxymethyl-tetrahydrofuran-2-ylmethoxy)-hydroxy-phosphinyloxy]-ethane]-thiazolium hydroxide inner salt-4-oxide (as Compound A) or cis-1-(2-[hydroxy[[tetrahydro-5-[(octadecylaminocarbonyl)oxy]methyl]furan- 2-yl]methoxyphosphinyloxy]ethyl)-quinolinium hydroxide, inner salt-4-oxide (as Compound B). Each of Compounds A and B was administered to a group of 5 rats.
Each of the two compounds were tested at 28 mg/kg suspended in the 10% intravenous fat emulsion. Rats were injected once a day for 14 consecutive days and monitored for the aforementioned signs of tail morbidity.

[3] = 28 mg/kg once daily in Emulsion A, 14 days
[4] = 28 mg/kg once daily in Emulsion A

SMILES	Test halted because of detergent-like effects around the injection site [1]	Reduction of detergent-like effects by adjustment of pH, or inclusion of buffers or serum albumin [1]	Edema, severity [2, 3]	Ischemia, severity [2, 3]	Necrosis, incidence [2, 3]	Necrosis, severity / lesion size [2, 3]	Slightly larger area of sloughing, incidence [2, 3]	Sloughing of tissue, incidence [2, 3]	Ischemia, incidence [2, 4]	Average gain in body weight [2, 4]	Edema, incidence [2, 4]	Edema, day of onset [2, 4]	Edema, day of onset in single late rat [2, 4]	Period for which tests could be run ([2]; in Emulsion A)	Overall damage to the rat tail / negative effects ([2]; in Emulsion A, 14 days)	Animals having necrotic tissue ([2]; in Emulsion A, 14 days)	Animals with sloughing of necrotic tissue ([2]; in Emulsion A, 14 days)
CCCCCCCCCCCCCCCCCCNC(=O)OC[C@H]1CC[C@@H](COP(=O)([O-])OCC[n+]2cccc3ccccc32)O1 (relative stereo) [Compound B, cis-1-(2-[hydroxy[[tetrahydro-5-[(octadecylaminocarbonyl)oxy]methyl]furan-2-yl]methoxyphosphinyloxy]ethyl)-quinolinium hydroxide, inner salt-4-oxide]	forced to halt after only a few days	had not proven satisfactory	mild edema	small areas of ischemia; also recorded: mild edema and ischemia	5/5	small areas of ischemia and necrosis; also recorded: very small areas; also recorded: necrotic lesions being much smaller	1/5	2/5	5/5	29.6%	5/5	~4 days	10 days	14 days	least amount of damage to the rat tail; also recorded: visibly better	–	–
CCCCCCCCCCCCCCCCCCNC(=O)OCC1(COP(=O)([O-])OCC[n+]2ccsc2)CCCO1 (stereo not drawn) [Compound A]	forced to halt after only a few days	had not proven satisfactory	moderate edema	moderate edema and ischemia	All rats had mottled necrotic areas	–	–	3/4	All rats displayed ischemia of entire tail	24%	All rats showed some amount of edema	2 to 4 days	13 days	14 days	greatly reduced the negative effects	100%	75%
